These results are taken from PMC3421993 (Journal of Experimental Botany, 2012).

This assay addresses T1, HRP (horseradish peroxidase) (Armoracia rusticana, UniProt P00433).
T1 sequence (P00433 31-338): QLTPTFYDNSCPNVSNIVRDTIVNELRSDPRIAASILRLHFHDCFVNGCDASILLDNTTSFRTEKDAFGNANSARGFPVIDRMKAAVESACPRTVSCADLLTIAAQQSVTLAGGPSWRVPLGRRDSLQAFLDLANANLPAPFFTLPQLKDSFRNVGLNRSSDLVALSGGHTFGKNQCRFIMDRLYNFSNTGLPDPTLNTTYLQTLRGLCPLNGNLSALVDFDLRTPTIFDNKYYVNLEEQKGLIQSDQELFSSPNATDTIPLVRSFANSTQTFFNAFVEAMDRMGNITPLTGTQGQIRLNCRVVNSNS
The experiment in a line: spectrophotometric peroxidase assay, […] nm. Type of assay: biochemical. The conditions noted are these: read-out: K m (mM) / Pyrogallol; 3.3 mM H2O2; 100 mM Na-phosphate pH 6.5.

Take `Oc1cccc(O)c1O` [pyrogallol]: the Km was 1.1 ± 0.1 mM.
